{
  "source": "BindingDB's records for patent US20250059213",
  "about": "(Pretzel Therapeutics, 2025)",
  "target": "T1, Lon protease homolog, mitochondrial (Homo sapiens, UniProt P36776)",
  "T1 sequence (P36776 whole entry)": "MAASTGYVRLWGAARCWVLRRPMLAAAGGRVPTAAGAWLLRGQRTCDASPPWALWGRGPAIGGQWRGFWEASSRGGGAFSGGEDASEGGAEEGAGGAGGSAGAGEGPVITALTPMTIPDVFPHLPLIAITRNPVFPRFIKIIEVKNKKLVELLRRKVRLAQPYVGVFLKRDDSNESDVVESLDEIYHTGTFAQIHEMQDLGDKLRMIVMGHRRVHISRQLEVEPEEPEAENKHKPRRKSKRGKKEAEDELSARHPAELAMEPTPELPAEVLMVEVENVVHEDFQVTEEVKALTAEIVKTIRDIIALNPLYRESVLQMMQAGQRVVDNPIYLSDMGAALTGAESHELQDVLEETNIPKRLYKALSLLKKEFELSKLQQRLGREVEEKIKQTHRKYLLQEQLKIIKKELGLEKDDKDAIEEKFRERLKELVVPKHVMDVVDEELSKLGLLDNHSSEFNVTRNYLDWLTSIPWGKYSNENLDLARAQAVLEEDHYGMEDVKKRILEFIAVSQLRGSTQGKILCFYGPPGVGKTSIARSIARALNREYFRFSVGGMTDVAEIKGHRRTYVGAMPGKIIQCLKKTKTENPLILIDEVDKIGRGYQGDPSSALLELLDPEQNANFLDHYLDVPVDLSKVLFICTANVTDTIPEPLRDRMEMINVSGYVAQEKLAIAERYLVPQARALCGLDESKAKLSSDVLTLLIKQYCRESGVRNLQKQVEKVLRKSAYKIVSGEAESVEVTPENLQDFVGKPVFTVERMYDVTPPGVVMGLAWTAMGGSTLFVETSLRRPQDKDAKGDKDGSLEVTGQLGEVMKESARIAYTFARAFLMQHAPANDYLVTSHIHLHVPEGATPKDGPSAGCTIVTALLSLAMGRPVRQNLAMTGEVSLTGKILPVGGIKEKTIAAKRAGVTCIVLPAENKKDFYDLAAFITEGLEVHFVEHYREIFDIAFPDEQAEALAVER",
  "experiment": "FRET-Based Assay",
  "experimental": "The LONP1-containing mix (10 μL) was incubated with the test compound for 15 min at 37° C. before adding the peptide-containing mix (5 μL). Solutions were dispensed using a small cassette-Multidrop Combi (Thermo Scientific).",
  "data": [
    {"smiles": "COCC[C@@H](NC(=O)c1cnccn1)C(=O)N[C@@H](CCCc1ccccc1)B(O)O", "note": "[US20250059213, Compound 13]", "values": [
      {"measurement": "IC50", "result": "< 50", "unit": "nM"}
    ]}
  ]
}
